Each compound was assayed against T1, ligand binding domain of human RORγ (A262-S507) (Homo sapiens, UniProt P51449) (assay: General RORγ SPA binding assay (competition with [3H]25-hydroxycholesterol)). Settings: RORγ SPA binding assay, inhibition of [3H]25-hydroxycholesterol binding; read-out: IC50.
T1 construct: made in house; host or cells: E. coli
T1 sequence (P51449 262-507): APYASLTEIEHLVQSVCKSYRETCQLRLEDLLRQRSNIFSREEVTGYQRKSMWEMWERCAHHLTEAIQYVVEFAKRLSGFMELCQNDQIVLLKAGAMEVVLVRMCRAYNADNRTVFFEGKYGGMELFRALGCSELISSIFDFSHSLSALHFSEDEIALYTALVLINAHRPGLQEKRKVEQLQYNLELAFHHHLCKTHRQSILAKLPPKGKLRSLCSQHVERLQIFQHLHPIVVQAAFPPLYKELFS
Outline: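 N-terminally His-tagged protein was expressed in E. coli and nickel-purified. Then 50 nM protein was preincubated with compound for 15 min at room temperature in PBS with 0.5% fatty acid free BSA, followed by radioligand for 15 min and copper His-tag SPA beads for 30 min. IC50 came from percent inhibition of binding.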

Q: How did the IC50 turn out when CCOc1ncc(C(=O)NCc2cccc(Cl)c2)c(C2CCN(C(=O)Cc3c(F)cccc3F)CC2)n1 [Compound A93, N-(3-chlorobenzyl)-4-(1-(2-(2,6-difluorophenyl)acetyl)piperidin-4-yl)-2-ethoxypyrimidine-5-carboxamide] was run?
A: 16 nM

Q: CC(C)Nc1ncc(C(=O)NCc2cccc(Cl)c2)c(C2CCN(C(=O)Cc3c(F)cccc3F)CC2)n1 [Compound A94, N-(3-chlorobenzyl)-4-(1-(2-(2,6-difluorophenyl)acetyl)piperidin-4-yl)-2-(isopropylamino)pyrimidine-5-carboxamide] was tested. Which IC50 did it give?
A: 25.4 nM

Q: Which IC50 does the source give for CC(C)Oc1ncc(C(=O)NCc2cccc(Cl)c2)c(C2CCN(C(=O)Cc3c(F)cccc3F)CC2)n1 [Compound A95, N-(3-chlorobenzyl)-4-(1-(2-(2,6-difluorophenyl)acetyl)piperidin-4-yl)-2-isopropoxypyrimidine-5-carboxamide] here?
A: 175 nM

Q: With NCCNc1ncc(C(=O)NCc2cccc(Cl)c2)c(C2CCN(C(=O)Cc3c(F)cccc3F)CC2)n1 [Compound A96, 2-((2-aminoethyl)amino)-N-(3-chlorobenzyl)-4-(1-(2-(2,6-difluorophenyl)acetyl)piperidin-4-yl)pyrimidine-5-carboxamide] as the compound, how does the IC50 read?
A: 202 nM

Q: For CN(C)CCNc1ncc(C(=O)NCc2cccc(Cl)c2)c(C2CCN(C(=O)Cc3c(F)cccc3F)CC2)n1 [Compound A97, N-(3-chlorobenzyl)-4-(1-(2-(2,6-difluorophenyl)acetyl)piperidin-4-yl)-2-((2-(dimethylamino)ethyl)amino) pyrimidine-5-carboxamide], which IC50 is on record?
A: 290 nM

Q: How did the IC50 turn out when O=C(NCc1cccc(Cl)c1)c1cnc(O)nc1C1CCN(C(=O)Cc2c(F)cccc2F)CC1 [Compound A98, N-(3-chlorobenzyl)-4-(1-(2-(2,6-difluorophenyl)acetyl)piperidin-4-yl)-2-hydroxypyrimidine-5-carboxamide] was run?
A: 398 nM

Q: How did the IC50 turn out when Cc1cc(C)cc(CNC(=O)c2cnc(C)nc2C2CCN(CCc3c(F)cccc3F)CC2)c1 [Compound A99, 4-(1-(2,6-difluorophenethyl)piperidin-4-yl)-N-(3,5-dimethylbenzyl)-2-methylpyrimidine-5-carboxamide] was run?
A: 58 nM

Q: Cc1cc(C)cc(CNC(=O)c2cnc(C)nc2C2CCN(CCc3ccccc3Cl)CC2)c1 [Compound A100, 4-(1-(2-chlorophenethyl)piperidin-4-yl)-N-(3,5-dimethylbenzyl)-2-methylpyrimidine-5-carboxamide] was tested. Which IC50 did it give?
A: 433 nM

Q: For Cc1cc(C)cc(CNC(=O)c2cnc(C)nc2C2CCN(CCc3ccccc3)CC2)c1 [Compound A101, N-(3,5-dimethylbenzyl)-2-methyl-4-(1-phenethylpiperidin-4-yl)pyrimidine-5-carboxamide], which IC50 is on record?
A: 634 nM

Q: Which IC50 does the source give for Cc1ncc(C(=O)NCc2cccc(Cl)c2)c(C2(C)CCN(C(=O)Cc3c(F)cccc3F)CC2)n1 [Compound A102, N-(3-Chlorobenzyl)-4-(1-(2-(2,6-difluorophenyl)acetyl)-4-methylpiperidin-4-yl)-2-methylpyrimidine-5-carb oxamide] here?
A: 1730 nM

Q: With Cc1ncc(C(=O)NCc2cccc(Cl)c2)c(C2(F)CCN(C(=O)Cc3c(F)cccc3F)CC2)n1 [Compound A103, N-(3-Chlorobenzyl)-4-(1-(2-(2,6-difluorophenyl)acetyl)-4-fluoropiperidin-4-yl)-2-methylpyrimidine-5-carboxamide] as the compound, how does the IC50 read?
A: 3.4 nM

Q: Cc1ncc(C(=O)NCc2cccc(C(F)(F)F)n2)c(C2(F)CCN(C(=O)Cc3c(F)cccc3F)CC2)n1 [Compound A104, 4-(1-(2-(2,6-difluorophenyl)acetyl)-4-fluoropiperidin-4-yl)-2-methyl-N-((6-(trifluoromethyl)pyridin-2-yl)methyl)pyrimidine-5-carboxamide] was tested. Which IC50 did it give?
A: 231 nM

Q: With Cc1cc(C)cc(CNC(=O)c2cnc(C)nc2C2(F)CCN(C(=O)Cc3c(F)cccc3F)CC2)c1 [Compound A105, 4-(1-(2-(2,6-difluorophenyl)acetyl)-4-fluoropiperidin-4-yl)-N-(3,5-dimethylbenzyl)-2-methylpyrimidine-5-carboxamide] as the compound, how does the IC50 read?
A: 551 nM

Q: Which IC50 does the source give for Cc1cc(C)cc(CNC(=O)c2cnc(C)nc2C2CCN(C(=O)Nc3ccccc3F)CC2)c1 [Compound A106, N-(3,5-Dimethylbenzyl)-4-(1-((2-fluorophenyl)carbamoyl)piperidin-4-yl)-2-methylpyrimidine-5-carboxamide] here?
A: 270 nM

Q: With Cc1cc(C)cc(CNC(=O)c2cnc(C)nc2C2CCN(C(=O)Nc3c(F)cccc3F)CC2)c1 [Compound A107, 4-(1-((2,6-Difluorophenyl)carbamoyl)piperidin-4-yl)-N-(3,5-dimethylbenzyl)-2-methylpyrimidine-5-carboxamide] as the compound, how does the IC50 read?
A: 12.1 nM

Q: With CNc1nc(C)nc(C2CCN(C(=O)Cc3c(F)cccc3F)CC2)c1C(=O)NCc1cc(C)cc(C)c1 [Compound A108, 4-(1-(2-(2,6-Difluorophenyl)acetyl)piperidin-4-yl)-N-(3,5-dimethylbenzyl)-2-methyl-6-(methylamino)pyrimidine-5-carboxamide] as the compound, how does the IC50 read?
A: 21.7 nM

Q: CNc1nc(C)nc(C2CCN(C(=O)Cc3c(F)cccc3F)CC2)c1C(=O)NCc1cccc(Cl)c1 [Compound A109] was tested. Which IC50 did it give?
A: 7.3 nM

Q: How did the IC50 turn out when Cc1ncc(C(=O)NC(CO)c2cccc(Cl)c2)c(C2CCN(C(=O)Cc3c(F)cccc3F)CC2)n1 (stereo not drawn) [Compound A110, N-(1-(3-Chlorophenyl)-2-hydroxyethyl)-4-(1-(2-(2,6-difluorophenyl)acetyl)piperidin-4-yl)-2-methylpyrimidine-5-carboxamide] was run?
A: 1440 nM

Q: For COc1nc(C)nc(C2CCN(C(=O)Cc3c(F)cccc3F)CC2)c1C(=O)NCc1cccc(Cl)c1 [Compound A111, N-(3-Chlorobenzyl)-4-(1-(2-(2,6-difluorophenyl)acetyl)piperidin-4-yl)-6-methoxy-2-methylpyrimidine-5-carboxamide], which IC50 is on record?
A: 9.8 nM

Q: For Cc1cc(C)cc(CNC(=O)c2c(C3CCN(C(=O)Cc4c(F)cccc4F)CC3)nc(C)nc2C(F)(F)F)c1 [Compound A112, 4-(1-(2-(2,6-Difluorophenyl)acetyl)piperidin-4-yl)-N-(3,5-dimethylbenzyl)-2-methyl-6-(trifluoromethyl)pyrimidine-5-carboxamide], which IC50 is on record?
A: 33.6 nM

Q: Cc1cc(C)cc(CN(C)C(=O)c2cnc(C)nc2C2CCN(C(=O)Cc3c(F)cccc3F)CC2)c1 [Compound A113, 4-(1-(2-(2,6-Difluorophenyl)acetyl)piperidin-4-yl)-N-(3,5-dimethylbenzyl)-N,2-dimethylpyrimidine-5-carboxamide] was tested. Which IC50 did it give?
A: 338 nM

Q: Which IC50 does the source give for Cc1cc(C)cc(CNC(=O)c2cnc(C)nc2C2C=CN(C(=O)Cc3c(F)cccc3F)CC2)c1 (stereo not drawn) [Compound A114, 4-(1-(2-(2,6-Difluorophenyl)acetyl)-1,2,3,4-tetrahydropyridin-4-yl)-N-(3,5-dimethylbenzyl)-2-methylpyrimidine-5-carboxamide] here?
A: 3 nM

Q: With Cc1cc(C)cc(CNC(=O)c2cnc(C)nc2C2CCN(CC(=O)c3ccccc3Cl)CC2)c1 [Compound A115, 4-(1-(2-(2-Chlorophenyl)-2-oxoethyl)piperidin-4-yl)-N-(3,5-dimethylbenzyl)-2-methylpyrimidine-5-carboxamide] as the compound, how does the IC50 read?
A: 342 nM

Q: For Cc1cc(C)cc(CNC(=O)c2cnc(C)nc2C2CCN(C(=O)C(F)(F)c3c(F)cccc3F)CC2)c1 [Compound A116, 4-{1-[(2,6-Difluorophenyl)(difluoro)acetyl]piperidin-4-yl}-N-[(3,5-dimethylphenyl)methyl]-2-methylpyrimidine-5-carboxamide], which IC50 is on record?
A: 37.1 nM

Q: For Cc1cc(C)cc(CNC(=O)c2cnc(C)nc2C2CCN(C(=O)C(F)(F)c3ccccc3)CC2)c1 [Compound A117, 4-{1-[Difluoro(phenyl)acetyl]piperidin-4-yl}-N-[(3,5-dimethylphenyl)methyl]-2-methylpyrimidine-5-carboxamide], which IC50 is on record?
A: 253 nM

Q: Cc1cc(C)cc(CNC(=O)c2cnc(C)nc2C2CCN(C(=O)C(F)(F)c3ccccc3F)CC2)c1 [Compound A118, 4-{1-[Difluoro(2-fluorophenyl)acetyl]piperidin-4-yl}-N-[(3,5-dimethylphenyl)methyl]-2-methylpyrimidine-5-carboxamide] was tested. Which IC50 did it give?
A: 51.6 nM

Q: Cc1cc(C)cc(CNC(=O)c2cnc(C)nc2C2CCN(C(=O)Oc3ccccc3Cl)CC2)c1 [Compound A119, 2-Chlorophenyl 4-[5-({[(3,5-dimethylphenyl)methyl]amino}carbonyl)-2-methylpyrimidin-4-yl]piperidine-1-carboxylate] was tested. Which IC50 did it give?
A: 6.2 nM

Q: How did the IC50 turn out when Cc1cc(C)cc(CNC(=O)c2cnc(C)nc2C2CCN(C(=O)Oc3c(F)cccc3F)CC2)c1 [Compound A120, 2,6-Difluorophenyl 4-[5-({[(3,5-dimethylphenyl)methyl]amino}carbonyl)-2-methylpyrimidin-4-yl]piperidine-1-carboxylate] was run?
A: 6 nM

Q: For Cc1nc(C)c(C(=O)NCc2ccnc(C(F)(F)F)n2)c(C2CCN(C(=O)Cc3c(F)cccc3F)CC2)n1 [Compound A121, 4-{1-[(2,6-Difluorophenyl)acetyl]piperidin-4-yl}-2,6-dimethyl-N-{[2-(trifluoromethyl)pyrimidin-4-yl]methyl}pyrimidine-5-carboxamide], which IC50 is on record?
A: 58.4 nM

Q: Cc1nc(C)c(C(=O)NCc2ccnc(C(F)(F)F)n2)c(C2CCN(C(=O)Nc3c(F)cccc3F)CC2)n1 [Compound A122, 4-(1-{[(2,6-difluorophenyl)amino]carbonyl}piperidin-4-yl)-2,6-dimethyl-N-{[2-(trifluoromethyl)pyrimidin-4-yl]methyl}pyrimidine-5-carboxamide] was tested. Which IC50 did it give?
A: 116 nM
